The results in this text go back to patent US7425640B2, “Substituted 5-carboxyamide pyrazoles and [1,2,4]triazoles as antiviral agents” (priority 2004, dated 2008).

Molecules are shown by their SMILES.

The target in one assay is HCV RNA-dependent RNA polymerase NS5B (Δ21) (Hepatitis C virus genotype 1b, UniProt P26663). The experiment in a line: Assay for HCV RNA-dependent RNA polymerase activity (SPA, [3H]-GTP incorporation). Format: biochemical. As to conditions: read-out: Δ21 Activity (IC50 μM); 50 nM NS5B (Δ21), class symbols. In short, it runs like this: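 NS5B (Δ21), 50 nM, was incubated 3 h at room temperature with biotinylated oligoG12/polyC template, 5 μM GTP plus [3H]-GTP, in HEPES pH 7.3 with MgCl2 and NaCl. [3H]-GTP incorporation was read by streptavidin SPA. IC50 came from single experiments across 11 two-fold dilutions (0.05–50 μM).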
HCV RNA-dependent RNA polymerase NS5B (Δ21), sequence (P26663 2420-2989, stated change not applied): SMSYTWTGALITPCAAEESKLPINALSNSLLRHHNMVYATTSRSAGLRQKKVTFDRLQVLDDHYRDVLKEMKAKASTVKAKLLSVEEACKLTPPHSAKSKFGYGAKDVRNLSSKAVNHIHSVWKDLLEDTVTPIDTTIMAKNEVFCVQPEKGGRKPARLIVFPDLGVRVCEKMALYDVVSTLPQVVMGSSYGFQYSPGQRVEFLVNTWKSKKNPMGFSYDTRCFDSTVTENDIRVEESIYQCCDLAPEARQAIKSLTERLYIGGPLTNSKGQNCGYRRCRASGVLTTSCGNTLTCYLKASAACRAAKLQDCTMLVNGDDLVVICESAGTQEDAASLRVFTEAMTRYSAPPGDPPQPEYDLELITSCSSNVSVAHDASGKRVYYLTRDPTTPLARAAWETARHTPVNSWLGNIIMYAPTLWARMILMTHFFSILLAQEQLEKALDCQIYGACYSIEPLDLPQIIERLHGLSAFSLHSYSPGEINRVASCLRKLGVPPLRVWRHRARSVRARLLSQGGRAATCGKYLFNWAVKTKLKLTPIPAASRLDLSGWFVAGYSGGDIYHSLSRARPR
For orientation: IC50 means the concentration that gives 50% inhibition. For the compound `COC(=O)CCCCCNC(=O)c1cc(C(=O)N[C@H]2CCCC[C@@H]2OCc2ccccc2)n(CC(=O)N[C@H]2CCCC[C@@H]2OCc2ccccc2)n1` [Compound 149], the IC50 lay within 0.1 to 1 µM. On the same count and under the same terms, then `CC(CCc1ccccc1)NC(=O)c1cc(C(=O)N[C@H]2CCCC[C@@H]2OCc2ccccc2)n(CC(=O)N[C@H]2CCCC[C@@H]2OCc2ccccc2)n1` (some centres unmarked) [Compound 101], with 0.1 to 1 µM; and `O=C(Cn1nc(C(=O)NC2CCc3ccccc32)cc1C(=O)N[C@H]1CCCC[C@@H]1OCc1ccccc1)N[C@H]1CCCC[C@@H]1OCc1ccccc1` (some centres unmarked) [Compound 107], with 0.1 to 1 µM. Consider `CON=Cc1cc(C(=O)N[C@H]2CCCC[C@@H]2OCc2ccccc2)n(CC(=O)N[C@H]2CCCC[C@@H]2OCc2ccccc2)n1` [Compound 162], for which the concentration for half-maximal inhibition (IC50) lay in the range of 0.1 to 1 µM. Take `O=C(Cn1nc(NS(=O)(=O)c2cc(Cl)cc(Cl)c2O)cc1C(=O)N[C@H]1CCCC[C@@H]1OCc1ccccc1)N[C@H]1CCCC[C@@H]1OCc1ccccc1` [Compound 108]: the IC50 was 0.1 to 1 µM. On the same count and under the same terms, in the case of `CCOC(=O)c1cc(C(=O)N[C@H]2CCCC[C@@H]2OCc2ccccc2)n(CC(=O)N[C@H]2CCCC[C@@H]2OCc2ccccc2)n1` [Compound 49] it was 0.1 to 1 µM; in that of `N#Cc1ccc(NNC(=O)c2cc(C(=O)N[C@H]3CCCC[C@@H]3OCc3ccccc3)n(CC(=O)N[C@H]3CCCC[C@@H]3OCc3ccccc3)n2)cc1` [Compound 154], 0.1 to 1 µM; in that of `CC(C)(C)ONC(=O)c1cc(C(=O)N[C@H]2CCCC[C@@H]2OCc2ccccc2)n(CC(=O)N[C@H]2CCCC[C@@H]2OCc2ccccc2)n1` [Compound 116], 0.1 to 1 µM. As to `O=C(Cn1nc(C(=O)NCCCCCC(=O)ON2C(=O)CCC2=O)cc1C(=O)N[C@H]1CCCC[C@@H]1OCc1ccccc1)N[C@H]1CCCC[C@@H]1OCc1ccccc1` [Compound 151], the IC50 lay within 0.1 to 1 µM. Still for that read-out and setting: then `Nc1c(C(=O)O)nn(CC(=O)N[C@H]2CCCC[C@@H]2OCc2ccccc2)c1C(=O)N[C@H]1CCCC[C@@H]1OCc1ccccc1` [Compound 147], with 0.1 to 1 µM.

Regarding `CCCONC(=O)c1cc(C(=O)N[C@H]2CCCC[C@@H]2OCc2ccccc2)n(CC(=O)N[C@H]2CCCC[C@@H]2OCc2ccccc2)n1` [Compound 164], the IC50 lay in the range of 0.1 to 1 µM. Still for that read-out and setting: in the case of `O=C(Cn1nc(C(=O)NCCc2cccc(Cl)c2)cc1C(=O)N[C@H]1CCCC[C@@H]1OCc1ccccc1)N[C@H]1CCCC[C@@H]1OCc1ccccc1` [Compound 94] it was 0.1 to 1 µM.

Still in this assay, the particulars now being: Δ21 Activity (IC50 μM), 50 nM NS5B (Δ21), class symbols.
`O=C(Cn1nc(C(=O)O)cc1C(=O)N[C@H]1CCCC[C@@H]1OCc1ccccc1)Nc1ccc2c(c1)OCO2` [Compound 185] had an IC50 of over 1 µM. Still for that read-out and setting: in the case of `O=C(Cn1nc(NS(=O)(=O)c2ccc(Cl)s2)cc1C(=O)N[C@H]1CCCC[C@@H]1OCc1ccccc1)N[C@H]1CCCC[C@@H]1OCc1ccccc1` [Compound 38] it was 0.05 to 0.1 µM; in that of `N#Cc1ccc(S(=O)(=O)Nc2cc(C(=O)N[C@H]3CCCC[C@@H]3OCc3ccccc3)n(CC(=O)N[C@H]3CCCC[C@@H]3OCc3ccccc3)n2)cc1` [Compound 42], 0.05 to 0.1 µM. With `COc1ccc(CNC(=O)c2cc(C(=O)N[C@H]3CCCC[C@@H]3OCc3ccccc3)n(CC(=O)N[C@H]3CCCC[C@@H]3OCc3ccccc3)n2)c(OC)c1` [Compound 28], the IC50 lay within 0.05 to 0.1 µM.

In turn, `O=C(Cn1nc(NS(=O)(=O)c2ccc(Br)c(C(=O)O)c2)cc1C(=O)N[C@H]1CCCC[C@@H]1OCc1ccccc1)N[C@H]1CCCC[C@@H]1OCc1ccccc1` [Compound 17] yielded an IC50 of under 0.05 µM. `CCOC(=O)c1cc(C(=O)Nc2cc(C)ccc2OCn2nc(C)cc2C)n(CC(=O)N[C@H]2CCCC[C@@H]2OCc2ccccc2)n1` [Compound 202]: the IC50 is over 1 µM.

Consider `O=C(Cn1nc(NS(=O)(=O)c2cccc(Br)c2)cc1C(=O)N[C@H]1CCCC[C@@H]1OCc1ccccc1)N[C@H]1CCCC[C@@H]1OCc1ccccc1` [Compound 36], for which the IC50 was in the range of 0.05 to 0.1 µM.

Still in this assay, the particulars now being: Δ21 Activity (IC50 μM), 50 nM NS5B (Δ21), numeric values.
`Cc1ccc(OCC2CCC2)c(NC(=O)c2cc(C(=O)O)nn2CC(=O)N[C@H]2CCCC[C@@H]2OCc2ccccc2)c1` [drawing 248] registered an IC50 of 0.055 µM.
